{
  "source": "patent US11771086B2",
  "about": "“Pest control composition including novel iminopyridine derivative” (priority 2012, dated 2023)",
  "assay_type_in_all_cases": "in vivo",
  "key": {"[1]": {"test_system": "Naranga aenescens", "experimental": "After standing for 3 days, first instar larvae were released thereto. […] The test was performed in duplicate.\n(§1) Method for Judging Synergistic Effects"}, "[2]": {"test_system": "Sogatella furcifera", "assay": "Reference Test Example 6 Pest control test of Sogatella furcifera (foliar treatment, single agent)", "settings": "96 h", "from_the_text": "(§2) After an air drying process, second instar larvae were released thereto. […] Test in duplicate."}, "[3]": {"test_system": "Trialeurodes vaporariorum", "assay": "Reference Test Example 8 Pest control test of Trialeurodes vaporariorum (leaf disk spray on eggs)", "settings": "foliar", "from_the_text": "Adult greenhouse whiteflies were released to a cucumber in pot culture and allowed to lay eggs overnight. […] Test in duplicate. Mortality of larvae (%)={(number of eggs laid−number of survived larvae)/number of eggs laid)}×100"}, "[4]": {"test_system": "Plutella xylostella", "assay": "Reference Test Example 1 Pest control test of Plutella xylostella (foliar treatment, single agent)", "settings": "Plutella xylostella, foliar, 72 h", "from_the_text": "as §2"}, "[5]": {"test_system": "Frankliniella occidentalis", "assay": "Reference Test Example 9 Pest control test of Frankliniella occidentalis (foliar treatment, single agent)", "settings": "72 h", "protocol": "After an air drying process, first instar larvae were released to the leaf disk. Thereafter, the larvae were left to stand in a thermostatic chamber (16 hours of light period-8 hours of dark period) at 25° C. […] Test in duplicate. Mortality of larvae (%)={number of dead larvae/(number of survived larvae+number of dead larvae)}×100"}, "[6]": {"test_system": "Plautia crossota stali", "assay": "Reference Test Example 11 Pest control test of Plautia crossota stali (sprayed young apple fruit)", "settings": "foliar, 144 h", "from_the_text": "After an air drying process, the young fruit was placed into a plastic cup, and two adults of Plautia crossota stali were released thereto. […] Mortality of adults (%)={number of dead adults/(number of survived adults+number of dead adults)}×100"}, "[7]": {"test_system": "Laodelphax striatellus", "assay": "Test Example 14 Test with Laodelphax striatellus by soil irrigation treatment (mixture with paddy herbicide)", "settings": "five days after release", "experimental": "After standing for three days, second instar larvae were released thereto. […] The test was performed in duplicate."}, "[8]": {"test_system": "Callosobruchus chinensis", "experimental": "A compound of Formula (I) and the insecticide indicated below, prepared in predetermined concentrations using acetone, were separately topically applied to the back of the same adult Callosobruchus chinensis. […] The test was performed in duplicate. Insect mortality (%)={number of dead insects/(number of survived insects+number of dead insects)}×100\n(A: 100−(insect mortality for treatment with only Compound P212)\nB: 100−(insect mortality for treatment with only the insecticide fipronil or imidacloprid))\nas §1"}, "[9]": {"test_system": "Nilaparvata lugens", "assay": "Reference Test Example 5 Pest control test of Nilaparvata lugens (foliar treatment, single agent)", "settings": "144 h", "from_the_text": "as §2"}},
  "data": [
    {"smiles": "O=C(N=c1ccccn1Cc1ccc(Cl)nc1)C(F)(F)F", "note": "[Compound P212, N-[1-((6-chloropyridin-3-yl)methyl)pyridin-2(1H)-ylidene]-2,2,2-trifluoroacetamide]", "values": [
      {"measurement": "Theoretical value by Colby's equation", "setting": "[1]; Naranga aenescens, single agent 0.01 mg/seedling (other component 0)", "value": 60, "unit": "%"},
      {"measurement": "Mortality of single agent against Naranga aenescens", "setting": "[1]; single agent 0.01 mg/seedling, soil irrigation, five days after release", "value": 60, "unit": "%"},
      {"measurement": "mortality at 100 ppm", "setting": "[2]", "value": "≥ 80", "unit": "%"},
      {"measurement": "mortality at 100 ppm", "setting": "[3]", "value": "≥ 80", "unit": "%"},
      {"measurement": "mortality at 100 ppm", "setting": "[4]", "value": "≥ 80", "unit": "%"},
      {"measurement": "mortality at 500 ppm", "setting": "[5]", "value": "≥ 80", "unit": "%"},
      {"measurement": "mortality at 50 ppm", "setting": "[6]", "value": "≥ 60", "unit": "%"},
      {"measurement": "Mortality of larvae (Laodelphax striatellus)", "setting": "[7]; single agent 0.005 mg/seedling", "value": 0, "unit": "%"},
      {"measurement": "Mortality of larvae (Laodelphax striatellus)", "setting": "[7]; single agent 0.01 mg/seedling", "value": 100, "unit": "%"},
      {"measurement": "Theoretical value by Colby's equation", "setting": "[8]; Callosobruchus chinensis, single agent 0.2 ng/head (other component 0)", "value": 20, "unit": "%"},
      {"measurement": "Mortality of single agent against Callosobruchus chinensis", "setting": "[8]; single agent 0.2 ng/head, topical, one day", "value": 20, "unit": "%"},
      {"measurement": "mortality at 100 ppm", "setting": "[9]", "value": "≥ 80", "unit": "%"}
    ]}
  ]
}
